Columns and labels:
KB-C-1 = assay: SRB-based cytotoxicity assay; assay type: cell-based; conditions: Homo sapiens, KBC-1; KB-C-1, multidrug naïve
Experimental: 1845B5 and MCF-10A non-cancer breast cell lines were cultured in DME/F12 medium supplemented with 10% fetal bovine serum, antibiotics and growth factors. […] The human small cell lung carcinoma H69 cell line and its multidrug-resistant MRP1-overexpressing isogenic H69AR cell line were purchased from ATCC. […] H69 cells grow as large multi-cell aggregates, making it difficult to accurately count cell numbers. […] The IL-6 dependent bortezomib-resistant ANBL6-BR cell line was further supplemented with 1 ng/ml of IL-6. The MCF10AT1 and MCF10CA1a cell lines are isogenic to the MCF10A cell line, and obtained from Dr. Valerie Weaver at the Center for Bioengineering and Tissue Regeneration, UCSF, CA, USA. […] The drug-resistant cells were cultured in the absence of drug for at least one passage before carrying out experiments. All cells were maintained in a humidified incubator at 37° C. […] Cell line authentication was performed using short tandem repeat (STR) profiling. […] Some wells were treated with 100 μl of 10% trichloroacetic acid (TCA) as a negative control and sham (medium with dimethyl sulfoxide; DMSO) treated cells were used as a positive control. […] TCA was removed and cells were washed with cold tap water, and plate was air-dried, followed by addition of 50 μl of 0.4% SRB staining solution to each well. After 30 minutes incubation, SRB staining solution was removed. Cells were washed with 1% acetic acid solution, and then washed with tap water to remove unbound staining solution, followed by air-drying. 200 μl of 10 mM (pH10.5) trizma base buffer was added to each well to solubilise macromolecules. […] Cell growth (inhibition) was calculated by the following formula: % cells proliferation=[(AT-CT)/(ST-CT)]×100 wherein AT=absorbance of treated cells, CT=absorbance of negative control cells, and ST=absorbance of sham treated cells. […] CI values were determined from four independent experiments.

tubulin = target: T1, tubulin (Sus scrofa, UniProt P02550+P02554); assay: Dissociation constant of CTR-tubulin binding (tryptophan fluorescence); parameters: species or system porcine; conditions: purified tubulin 0.4 μM, 30 minutes at 37° C.
T1 construct: purchased Cytoskeleton Inc. (Denver, Colo.) T240
T1 sequence (P02554 whole entry): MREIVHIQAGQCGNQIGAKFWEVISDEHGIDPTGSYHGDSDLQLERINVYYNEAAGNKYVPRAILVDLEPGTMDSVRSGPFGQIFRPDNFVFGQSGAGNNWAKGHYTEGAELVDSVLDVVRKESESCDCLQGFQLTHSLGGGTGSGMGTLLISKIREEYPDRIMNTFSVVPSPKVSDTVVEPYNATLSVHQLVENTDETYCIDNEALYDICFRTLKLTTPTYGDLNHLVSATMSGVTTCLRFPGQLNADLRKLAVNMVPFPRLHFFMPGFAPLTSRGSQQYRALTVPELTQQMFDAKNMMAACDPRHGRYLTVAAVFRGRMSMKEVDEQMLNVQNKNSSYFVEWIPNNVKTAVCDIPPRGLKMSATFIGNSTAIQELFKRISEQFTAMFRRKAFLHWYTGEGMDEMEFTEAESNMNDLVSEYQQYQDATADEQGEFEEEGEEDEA
T1 sequence (P02550 whole entry): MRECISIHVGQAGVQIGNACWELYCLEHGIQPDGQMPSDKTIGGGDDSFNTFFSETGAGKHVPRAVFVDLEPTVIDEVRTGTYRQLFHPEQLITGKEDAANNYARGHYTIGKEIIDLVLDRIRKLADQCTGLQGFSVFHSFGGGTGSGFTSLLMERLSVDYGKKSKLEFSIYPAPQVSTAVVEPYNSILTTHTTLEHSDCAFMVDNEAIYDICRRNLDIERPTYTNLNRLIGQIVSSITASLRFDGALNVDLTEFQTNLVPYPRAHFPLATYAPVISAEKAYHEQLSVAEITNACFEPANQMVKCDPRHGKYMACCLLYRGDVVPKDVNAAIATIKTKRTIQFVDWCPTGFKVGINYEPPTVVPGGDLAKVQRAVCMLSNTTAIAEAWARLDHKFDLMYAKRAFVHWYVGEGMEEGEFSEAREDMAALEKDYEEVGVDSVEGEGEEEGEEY
Experimental: Purified tubulin (0.4 μM) was dissolved in 25 mM PIPES buffer (pH 6.8) and incubated in the presence or absence of different concentrations of CTR-17 (or CTR-20) for 30 minutes at 37° C. The intrinsic fluorescence of the tryptophan residues in the tubulin heterodimers was monitored by excitation of the reaction mixture at 295 nm and the emission spectra at the 315-370 nm wavelength range. All measurements were corrected for the inner filter using the formula Fcorrected=Fobserved×antilog [(Aex+Aem)/2], where Aex and Aem are the absorbance of the reaction mixture at the excitation and emission wavelengths, respectively. Graph Pad Prism software was used to determine the dissociation constant of the CTR compounds binding to tubulin using the following formula
wherein ΔF is the changes in fluorescence intensity of tubulin when bound with the CTR compounds, ΔFmax is the maximum change in the fluorescence intensity when tubulin is bound with the compounds, C is the concentration of the CTR compounds, and Kd is the dissociation constant of the CTR compounds bound to tubulin.

MCF-7 = assay: SRB-based cytotoxicity assay; assay type: cell-based, human; conditions: Homo sapiens, MCF7; MCF-7; SRB; Table 2
Experimental: (§1) For (anti)proliferation assays, 4,000-5,000 cells/well of the 96-well clustered dish were incubated for 16 hours, as described previously (Hu et al., 2008; Skehan et al., 1990). After 16 hours, culture medium was replaced with fresh medium containing different dilutions of test compounds dissolved in DMSO. Some wells were treated with 100 μl of 10% trichloroacetic acid (TCA) as a negative control and sham (medium with dimethyl sulfoxide; DMSO) treated cells were used as a positive control. After 72 hours post-incubation, medium was removed and cells were fixed with 10% TCA at 4° C. for 1 hour. TCA was removed and cells were washed with cold tap water, and plate was air-dried, followed by addition of 50 μl of 0.4% SRB staining solution to each well. After 30 minutes incubation, SRB staining solution was removed. Cells were washed with 1% acetic acid solution, and then washed with tap water to remove unbound staining solution, followed by air-drying. 200 μl of 10 mM (pH10.5) trizma base buffer was added to each well to solubilise macromolecules. SRB stained macromolecules were determined at a 540 nm wavelength using an automated plate reader (Synergy H4 Hybrid Multi-Mode Microplate Reader, BioTek, Winooski, Vt.). Cell growth (inhibition) was calculated by the following formula:
(§2) % cells proliferation=[(AT−CT)/(ST−CT)]×100
(§3) wherein AT=absorbance of treated cells, CT=absorbance of negative control cells, and ST=absorbance of sham treated cells. IC50 values were calculated from sigmoidal dose-response curves generated by two independent biological replicates, with quadruplicate in each set by using Graph Pad Prism v.5.04 software. […] The combinational index (CI) was calculated as described previously (Chou 2006). If the CI values were less than, equal to or more than 1, it indicates a synergistic, additive or antagonistic effect respectively (Chou 2006). CI values were determined from four independent experiments.

MDA-MB-468 = assay: SRB-based cytotoxicity assay; assay type: cell-based, human; conditions: for IC50: Homo sapiens, MDA-MB-468, SRB, Table 2
Experimental: as §1, §2, §3

MDA-MB-231 = assay: SRB-based cytotoxicity assay; assay type: cell-based, human; conditions: for IC50: Homo sapiens, MDA-MB-231, SRB, Table 2; for Cell survival rate: MDA-MB231
Experimental: as §1, §2, §3

Body weight analysis = assay type: in vivo; conditions: ATH490 athymic mice; D0-D30
Experimental: Animals were monitored for food and water consumption every day, and their body weights and tumor volumes were measured twice per week. Tumor volumes were measured with a digital caliper and were determined by using the following formula: ½ length×width^2. Blood samples were collected via cardiac puncture and processed further for ALT and AST measurements. The animals were then immediately euthanized by carbon dioxide. Tumors and vital organs (spleen, kidney, liver and lung) were collected and fixed in 10% buffered formalin at 4° C. overnight before being processed for paraffin embedding. The paraffin-embedded blocks were then cut into 4-5 μm thick sections. Each section of tumors and organs was stained with hematoxylin and eosin (H&E).
Changes in body weight, hemoglobin (Hb) and the amount and ratio of alanine transaminase (ALT)/aspartate transaminase (AST) were used to measure toxic effects. In addition, vital organs (liver, spleen, kidney and lung) were analyzed by […] after they were harvested, fixed, processed, paraffin-embedded, sectioned, and stained as described above.
. Six-week old ATH40 athymic nude mice were treated as indicated in the legend. “Tax” denotes that paclitaxel was injected by i.v. as described in Table 11. D0-D30 denotes day 0 to day 30 post-drug treatment. The numbers in brackets show drug concentrations in mg/kg body weight. […]

For `COc1ccccc1C(=O)/C=C/c1cc2ccccc2[nH]c1=O` [CTR-17, (E)-3-(3-(2-Methoxyphenyl)-3-oxoprop-1-enyl)quinolin-2(1H)-one], the IC50 (KB-C-1) was 380 ± 70 nM, the Kd (tubulin) was 4580 ± 950 nM and the IC50 (MCF-7) was 520 ± 170 nM. The IC50 (MDA-MB-468) was 150 ± 330 nM, the “preferentially kill cancer over non-cancer cells” value (MDA-MB-468; MDA-MB-468 versus MCF-10A) was “up to 26 times” and the IC50 (MDA-MB-231) was 410 ± 20 nM. For the same molecule, the “toxic side effect as determined by the changes in body weights” value (Body weight analysis) was “Neither CTR-17 nor CTR-20 caused any notable toxic side effect”.

For `COc1ccc2[nH]c(=O)c(/C=C/C(=O)c3ccccc3OC)cc2c1` [CTR-20, (E)-6-Methoxy-3-(3-(2-methoxyphenyl)-3-oxoprop-1-enyl) quinolin-2(1H)-one], the IC50 (KB-C-1) was 100 ± 20 nM, the Kd (tubulin) was 5090 ± 490 nM and the IC50 (MCF-7) was 140 ± 60 nM. The IC50 (MDA-MB-468) was 120 ± 20 nM, the IC50 (MDA-MB-231) was 120 ± 90 nM and the Cell survival rate (MDA-MB-231; single agent 0.1 μM) was 70.86 ± 4.17. For the same molecule, the Cell survival rate (MDA-MB-231; single agent 0.2 μM) was 41.07 ± 4.58, the Cell survival rate (MDA-MB-231; single agent 0.4 μM) was 26.38 ± 4.73 and the “toxic side effect as determined by the changes in body weights” value (Body weight analysis) was “Neither CTR-17 nor CTR-20 caused any notable toxic side effect”.

From patent US20180344725A1, “QUINOLONE CHALCONE COMPOUNDS AND USES THEREOF” (priority 2015, published 2018)
